# From patent publication US9695155B2, “Herbicidal substituted pyrimidinyloxy benzene compounds” (E. I. DU PONT DE NEMOURS AND COMPANY, priority 2013, dated 2017)
# Key:
# chickweed = test: Test C postemergence; format: in vivo, Stellaria media; settings: for Plant response rating, Chickweed: scale 0 to 100 (0 no effect, 100 complete control)
# Outline: (§1)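 Rated visually on 0–100 (100 = complete control) after 13–15 days under glass. Treatments went onto freshly seeded loam/sand soil or onto emerged plants at the 1- to 4-leaf stage, using a surfactant-containing solvent formulation.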
# Italian ryegrass = test: Test C postemergence; format: in vivo, Lolium multiflorum; settings: for Plant response rating, Ryegrass, Italian: scale 0 to 100 (0 no effect, 100 complete control)
# Outline: as §1
# corn = test: Test C postemergence; format: in vivo, Zea mays; settings: for Plant response rating, Corn: scale 0 to 100 (0 no effect, 100 complete control)
# Outline: as §1
# johnsongrass = test: Test C postemergence; format: in vivo, Sorghum halepense; settings: for Plant response rating, Johnsongrass: scale 0 to 100 (0 no effect, 100 complete control)
# Outline: as §1
# yellow nutsedge = test: Test C postemergence; format: in vivo, Cyperus esculentus; settings: for Plant response rating, Nutsedge, Yellow: scale 0 to 100 (0 no effect, 100 complete control)
# Outline: as §1
# giant foxtail [1] = test: Test A preemergence; format: in vivo, Setaria faberii; settings: 0 to 100 scale where 0 is no effect and 100 is complete control
# Outline: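 Injury scores run from 0, no effect, to 100, complete control, judged by eye against untreated plants roughly 10 days after treatment. Chemicals carried a surfactant in a non-phytotoxic solvent and went onto loam–sand soil preemergence or onto one- to two-leaf seedlings postemergence.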
# waterhemp = test: Test C postemergence; format: in vivo, Amaranthus rudis; settings: for Plant response rating, Waterhemp: scale 0 to 100 (0 no effect, 100 complete control)
# Outline: as §1
# giant foxtail [2] = test: Test C postemergence; format: in vivo, Setaria faberii; settings: for Plant response rating, Foxtail, Giant: scale 0 to 100 (0 no effect, 100 complete control)
# Outline: as §1
# wild oat = test: Test C postemergence; format: in vivo, Avena fatua; settings: for Plant response rating, Oat, Wild: scale 0 to 100 (0 no effect, 100 complete control)
# Outline: as §1
# large (Lg) crabgrass = test: Test C postemergence; format: in vivo, Digitaria sanguinalis; settings: for Plant response rating, Crabgrass, Large: scale 0 to 100 (0 no effect, 100 complete control)
# Outline: as §1
# blackgrass = test: Test C postemergence; format: in vivo, Alopecurus myosuroides; settings: for Plant response rating, Blackgrass: scale 0 to 100 (0 no effect, 100 complete control)
# Outline: as §1
# [3] = 16 g ai/ha, postemergence, 0 is no effect, 100 is complete control
# [4] = 125 g ai/ha, postemergence, visual rating
smiles,measurement,setting,value
N#Cc1cnn(-c2c(Br)cccc2Oc2ncc(Cl)cn2)c1 [Compound 140],"Plant response rating (0 to 100), Chickweed",chickweed; [3],30
same,"Plant response rating, Chickweed",chickweed; [4],70
same,"Plant response rating, Chickweed","chickweed; Postemergence, 62 g ai/ha",45
same,"Plant response rating (0 to 100), Ryegrass, Italian",Italian ryegrass; [3],0
same,"Plant response rating, Ryegrass, Italian",Italian ryegrass; [4],0
same,"Plant response rating, Ryegrass, Italian","Italian ryegrass; Postemergence, 62 g ai/ha",0
same,"Plant response rating (0 to 100), Corn",corn; [3],0
same,"Plant response rating, Corn",corn; [4],10
same,"Plant response rating, Corn","corn; Postemergence, 62 g ai/ha",10
same,"Plant response rating (0 to 100), Johnsongrass",johnsongrass; [3],0
same,"Plant response rating, Johnsongrass",johnsongrass; [4],25
same,"Plant response rating, Johnsongrass","johnsongrass; Postemergence, 62 g ai/ha",5
same,"Plant response rating (0 to 100), Nutsedge, Yellow",yellow nutsedge; [3],0
same,"Plant response rating, Nutsedge, Yellow",yellow nutsedge; [4],5
same,"Plant response rating, Nutsedge, Yellow","yellow nutsedge; Postemergence, 62 g ai/ha",5
same,"Plant response rating, Foxtail, Giant","giant foxtail [1]; 31 g ai/ha, visual, approximately 10 days",50
same,"Plant response rating, Foxtail, Giant",giant foxtail [1]; 125 g ai/ha,100
same,"Plant response rating (0 to 100), Waterhemp",waterhemp; [3],75
same,"Plant response rating, Waterhemp",waterhemp; [4],85
same,"Plant response rating, Waterhemp","waterhemp; Postemergence, 62 g ai/ha",80
same,"Plant response rating (0 to 100), Foxtail, Giant",giant foxtail [2]; [3],5
same,"Plant response rating, Foxtail, Giant",giant foxtail [2]; [4],20
same,"Plant response rating, Foxtail, Giant","giant foxtail [2]; Postemergence, 62 g ai/ha",20
same,"Plant response rating (0 to 100), Oat, Wild",wild oat; [3],0
same,"Plant response rating, Oat, Wild",wild oat; [4],5
same,"Plant response rating, Oat, Wild","wild oat; Postemergence, 62 g ai/ha",0
same,"Plant response rating (0 to 100), Crabgrass, Large",large (Lg) crabgrass; [3],10
same,"Plant response rating, Crabgrass, Large",large (Lg) crabgrass; [4],20
same,"Plant response rating, Crabgrass, Large","large (Lg) crabgrass; Postemergence, 62 g ai/ha",15
same,"Plant response rating (0 to 100), Blackgrass",blackgrass; [3],0
same,"Plant response rating, Blackgrass",blackgrass; [4],5
same,"Plant response rating, Blackgrass","blackgrass; Postemergence, 31 g ai/ha, 13 to 15 days",0
same,"Plant response rating, Blackgrass","blackgrass; Postemergence, 62 g ai/ha",0
